Values joined by “and” are separate entries in the source; they are usually repeats but may differ in a detail not shown here. Equal entries are not always repeated. ± gives the uncertainty stated by the source.
Key:
[1] = xn = mol fraction of the nth substance listed

C1COCCN1
101 kPa
Settings	viscosity
293.15 K	2.12 ± 0.02 mPa·s and 2.282 ± 0.03 mPa·s
303.15 K	1.74 ± 0.02 mPa·s
313.15 K	1.45 ± 0.02 mPa·s
323.15 K	1.21 ± 0.01 mPa·s

CC(=O)[O-].C[NH+]1CCCC1
Settings	viscosity [mPa·s]
298.15 K, 100 kPa	3.78 ± 0.08

CC(C)Br
101 kPa
Settings	viscosity [mPa·s]
298.15 K	0.4981 ± 0.028
303.15 K	0.4835 ± 0.028
308.15 K	0.4708 ± 0.027
313.15 K	0.4389 ± 0.026
318.15 K	0.4194 ± 0.025

CC(CCO)CC(C)(C)C (centres undefined)
101.33 kPa
Settings	viscosity [mPa·s]
298.15 K	10.97 ± 0.4
303.15 K	10.44 ± 0.39
308.15 K	9.608 ± 0.36

CC(O)CO (centres undefined)
viscosity
Settings	293.15 K	298.15 K	303.15 K	308.15 K	313 K	313.15 K	318.15 K	323.15 K
100 kPa	54.6 ± 11 mPa·s and 58.75 ± 5.9 mPa·s and 59.2 ± 0.7 mPa·s	–	33.06 ± 0.69 mPa·s	25.31 ± 0.53 mPa·s and 24.9 ± 0.3 mPa·s	–	19.65 ± 2 mPa·s and 19.3 ± 0.2 mPa·s	–	12.53 ± 0.26 mPa·s and 12.54 ± 1.3 mPa·s and 12.51 ± 0.28 mPa·s
101 kPa	–	–	34.28 ± 0.094 mPa·s and 33.1 ± 0.7 mPa·s	–	20.2 ± 0.6 mPa·s	20.43 ± 0.055 mPa·s and 19.65 ± 0.09 mPa·s and 21.46 ± 0.12 mPa·s	–	12.2 ± 0.73 mPa·s
101.3 kPa	57.2 ± 0.2 mPa·s	43.5 ± 0.5 mPa·s and 43.6 ± 0.2 mPa·s	32.73 ± 0.42 mPa·s	25.1 ± 0.3 mPa·s and 24.8 ± 0.1 mPa·s	–	19.47 ± 0.23 mPa·s and 19.47 ± 0.14 mPa·s	15.36 ± 0.17 mPa·s and 15.2 ± 0.1 mPa·s and 15.36 ± 0.11 mPa·s	12.34 ± 0.14 mPa·s

CCCCC(=O)[O-].CC[NH+](CC)CCO
101 kPa
Settings	viscosity [mPa·s]
293.15 K	62.45 ± 1.1
298.15 K	47.75 ± 0.81
303.15 K	37.12 ± 0.63
308.15 K	29.31 ± 0.5
313.15 K	23.48 ± 0.4
318.15 K	19.07 ± 0.32
323.15 K	15.68 ± 0.27

CCCCCCCC[P+](CC)(CC)CC.N#Cc1ccc[n-]1
100 kPa
Settings	viscosity [mPa·s]
293.15 K	272 ± 39
298.15 K	189 ± 27
303.15 K	140 ± 20
313.15 K	82 ± 12

CCCCn1cc[n+](C)c1.COP(=O)([O-])OC
101 kPa
Settings	viscosity [mPa·s]
293.15 K	895.4 ± 36
298.15 K	608.9 ± 21
303.15 K	426 ± 13
308.15 K	305.8 ± 8.1
313.15 K	224.9 ± 5.1
318.15 K	168.9 ± 3.3
323.15 K	129.4 ± 2.2

CCC[N+]1(C)CCCC1.N#C[N-]C#N
Settings	viscosity [mPa·s]
313.15 K, 101 kPa	18.6 ± 1.9

Cc1ccccn1
viscosity
Settings	293.15 K	298.15 K	298.18 K	303.15 K	303.21 K	308.23 K	313.15 K	313.29 K	318.33 K	323.15 K
101 kPa	0.808 ± 0.014 mPa·s	0.792 ± 0.013 mPa·s	0.751 ± 0.012 mPa·s	–	0.704 ± 0.011 mPa·s	0.663 ± 0.01 mPa·s	0.628 ± 0.011 mPa·s	0.623 ± 0.01 mPa·s	0.588 ± 0.009 mPa·s	–
101.3 kPa	–	–	–	0.7406 ± 0.017 mPa·s	–	–	0.6537 ± 0.015 mPa·s and 0.6534 ± 0.015 mPa·s	–	–	0.5843 ± 0.014 mPa·s

ClC=C(Cl)Cl
Settings	viscosity
293.15 K, 101 kPa	0.568 ± 0.011 mPa·s
293.15 K, 101.33 kPa	0.572 ± 0.011 mPa·s
298 K, 101 kPa	0.69 ± 0.02 mPa·s
298.15 K, 101 kPa	0.531 ± 0.005 mPa·s
298.15 K, 101.33 kPa	0.529 ± 0.006 mPa·s and 0.618 ± 0.008 mPa·s
303 K, 101 kPa	0.66 ± 0.01 mPa·s
303.15 K, 101 kPa	0.52 ± 0.011 mPa·s and 0.523 ± 0.0045 mPa·s
303.15 K, 101.3 kPa	0.509 ± 0.009 mPa·s and 0.515 ± 0.008 mPa·s
303.15 K, 101.32 kPa	0.523 ± 0.0072 mPa·s
303.15 K, 101.33 kPa	0.523 ± 0.004 mPa·s and 0.515 ± 0.015 mPa·s and 0.532 ± 0.01 mPa·s
308 K, 101 kPa	0.63 ± 0.01 mPa·s
308.15 K, 101 kPa	0.489 ± 0.005 mPa·s
308.15 K, 101.33 kPa	0.588 ± 0.008 mPa·s
313 K, 101 kPa	0.6 ± 0.01 mPa·s
313.15 K, 101 kPa	0.482 ± 0.01 mPa·s and 0.531 ± 0.0071 mPa·s
313.15 K, 101.33 kPa	0.486 ± 0.014 mPa·s and 0.473 ± 0.0092 mPa·s
318.15 K, 101 kPa	0.45 ± 0.005 mPa·s
318.15 K, 101.33 kPa	0.557 ± 0.007 mPa·s
323.15 K, 101 kPa	0.445 ± 0.009 mPa·s and 0.472 ± 0.0063 mPa·s

NC1CCCCC1
101 kPa
Settings	viscosity
298.15 K	1.753 ± 0.013 mPa·s (2×) and 1.773 ± 0.021 mPa·s and 1.753 ± 0.012 mPa·s
303.15 K	1.656 ± 0.014 mPa·s and 1.648 ± 0.019 mPa·s
308.15 K	1.325 ± 0.14 mPa·s and 1.325 ± 0.017 mPa·s

O=C1CCCC1
viscosity
Settings	298.15 K	303.15 K	308.15 K	313.15 K	318.15 K
100 kPa	–	0.985 ± 0.1 mPa·s	0.931 ± 0.1 mPa·s	0.863 ± 0.1 mPa·s	0.811 ± 0.1 mPa·s
101 kPa	1.084 ± 0.014 mPa·s and 1.125 ± 0.0079 mPa·s	–	0.923 ± 0.012 mPa·s and 0.931 ± 0.046 mPa·s and 0.928 ± 0.035 mPa·s	0.861 ± 0.012 mPa·s and 0.861 ± 0.011 mPa·s and 0.863 ± 0.044 mPa·s	0.811 ± 0.041 mPa·s
101.3 kPa	1.074 ± 0.027 mPa·s	–	–	–	–
101.33 kPa	–	0.992 ± 0.027 mPa·s	–	–	–

O=C[O-].OCC[NH2+]CCO
100 kPa
Settings	viscosity [mPa·s]
293.15 K	470.9 ± 96
303.15 K	242 ± 49
313.15 K	135 ± 27
323.15 K	82.25 ± 17

CCCCCCCC[P+](CC)(CC)CC.N#Cc1ccc[n-]1 + OCC(O)CO
viscosity [mPa·s], [1], 100 kPa
Settings	293.15 K	298.15 K	303.15 K	313.15 K
x1 = 0.031	1533 ± 240	966 ± 150	621 ± 92	248 ± 36
x1 = 0.071	1550 ± 240	996 ± 150	617 ± 92	248 ± 36
x1 = 0.109	1457 ± 220	916 ± 140	581 ± 86	228 ± 33
x1 = 0.16	1330 ± 200	825 ± 120	540 ± 80	240 ± 35
x1 = 0.222	1133 ± 170	699 ± 100	428 ± 63	198 ± 29
x1 = 0.297	903 ± 140	584 ± 87	405 ± 59	187 ± 27
x1 = 0.393	672 ± 100	437 ± 65	289 ± 43	150 ± 22
x1 = 0.457	608 ± 91	408 ± 60	274 ± 40	138 ± 20
x1 = 0.532	545 ± 81	368 ± 54	251 ± 36	134 ± 19
x1 = 0.615	519 ± 77	357 ± 52	245 ± 35	129 ± 18
x1 = 0.742	434 ± 64	291 ± 42	197 ± 28	105 ± 15
x1 = 0.833	372 ± 54	252 ± 36	167 ± 24	89 ± 13

CCCCCCCC[P+](CC)(CC)CC.N#Cc1ccc[n-]1 + OCCN(CCO)CCO
viscosity [mPa·s], [1], 100 kPa
Settings	293.15 K	298.15 K	303.15 K	313.15 K
x1 = 0.014	950 ± 140	622 ± 93	405 ± 59	185 ± 27
x1 = 0.025	986 ± 150	640 ± 95	415 ± 61	190 ± 27
x1 = 0.039	1004 ± 150	657 ± 98	426 ± 62	193 ± 28
x1 = 0.049	1011 ± 150	660 ± 99	426 ± 63	193 ± 28
x1 = 0.104	939 ± 140	596 ± 89	380 ± 55	175 ± 25
x1 = 0.167	824 ± 120	539 ± 80	351 ± 51	163 ± 23
x1 = 0.223	812 ± 120	533 ± 79	352 ± 51	166 ± 24
x1 = 0.315	722 ± 110	474 ± 70	314 ± 46	152 ± 22
x1 = 0.508	619 ± 92	422 ± 62	284 ± 41	140 ± 20
x1 = 0.647	600 ± 89	406 ± 60	273 ± 39	136 ± 20
x1 = 0.809	438 ± 64	301 ± 44	202 ± 29	101 ± 14

C1COCCN1 + OCCO
viscosity [mPa·s], [1], 101 kPa
Settings	293.15 K	303.15 K	313.15 K	323.15 K
x1 = 0.06476	23.01 ± 0.22	–	–	–
x1 = 0.06828	–	–	9.851 ± 0.12	–
x1 = 0.07	23.22 ± 0.22	15.77 ± 0.18	9.66 ± 0.12	7 ± 0.07
x1 = 0.2	24.69 ± 0.23	16.33 ± 0.19	10.32 ± 0.12	7.69 ± 0.08
x1 = 0.2273	24.37 ± 0.22	–	–	–
x1 = 0.2296	–	–	10.49 ± 0.12	–
x1 = 0.4	21.35 ± 0.19	14.19 ± 0.16	9.34 ± 0.1	7.13 ± 0.07
x1 = 0.4103	20.98 ± 0.19	–	–	–
x1 = 0.4144	–	–	9.259 ± 0.11	–
x1 = 0.6	11.83 ± 0.13	8.07 ± 0.09	6.02 ± 0.06	4.41 ± 0.05
x1 = 0.6173	–	–	6.339 ± 0.077	–
x1 = 0.6201	11.78 ± 0.11	–	–	–
x1 = 0.8601	4.454 ± 0.043	–	–	–
x1 = 0.8629	–	–	2.391 ± 0.029	–
x1 = 0.9	3.94 ± 0.05	2.92 ± 0.03	2.24 ± 0.02	1.72 ± 0.02

CC(O)CO (centres undefined) + OCCO
viscosity [mPa·s], [1], 101 kPa
Settings	x2 = 0.1212	x2 = 0.2346	x2 = 0.3459	x2 = 0.4339	x2 = 0.5501	x2 = 0.631	x2 = 0.7481	x2 = 0.8299	x2 = 0.9064
298.15 K	41.61 ± 0.24	38.96 ± 0.25	36.05 ± 0.25	33.67 ± 0.25	30.55 ± 0.25	28.37 ± 0.25	25.1 ± 0.24	22.65 ± 0.23	20.25 ± 0.22
303.15 K	32.39 ± 0.19	30.43 ± 0.2	28.19 ± 0.2	26.35 ± 0.2	23.95 ± 0.2	22.28 ± 0.2	19.75 ± 0.19	17.84 ± 0.18	15.99 ± 0.17
308.15 K	24.28 ± 0.15	22.97 ± 0.15	21.42 ± 0.15	20.15 ± 0.15	18.48 ± 0.16	17.31 ± 0.15	15.55 ± 0.15	14.2 ± 0.15	12.9 ± 0.14

[Cl-].[Na+] + OCCO
[1], 101 kPa, x1 = 0.0588
Settings	viscosity [mPa·s]
303 K	20.88 ± 0.29
313 K	14.11 ± 0.19
323 K	9.987 ± 0.13

[Al] + [Ga]
[1], 323 K, 101 kPa
Settings	viscosity [mPa·s]
x1 = 0.021	1.529 ± 0.1
x1 = 0.1	1.638 ± 0.11

— the CheMixHub viscosity set
